Results from patent US7074769B2, “Oligonucleotide inhibitors of bcl-xL” (The Trustees of Columbia University in the City of New York, priority 1998, dated 2006).

Tested on: bcl-xL transfected LNCaP cells
Assay: Drug treatment of bcl-xL transfected and parental LNCaP cells
Format: cell-based, human
Conditions: for apoptosis induction: parental LNCaP cells or neomycin-expressing control-transfected LNCaP cells; for concentration up to which bcl-xL overexpressing LNCaP clones were resistant: treatment for 24 h
Method: LNCaP cells transfected with the neomycin-selectable pSFFV/bcl-xL plasmid or with a control, neomycin-resistant expression vector pSFFV. Aliquots containing 10 μg of plasmid and 5 μg of lipofectin reagent (Life technologies, Inc., Gaithersburg, Md.) in serum-free OPTI-MEM (Life Technologies, Inc.) were added to cultured cells. The transfection media was replaced 4 h later with RPMI-10% FBS medium. Individual colonies were selected from these plates after approximately 3–4 weeks of routine maintenance in RPMI-10% FBS containing 0.6 mg/ml G418 sulfate (Geneticin, Life Technologies, Inc.). The bcl-xL-transformed LNCaP cells were cultured in RPMI-10% FBS, supplemented with 0.3 mg/ml G418 sulfate in 5% CO2 atmosphere.
Two clones of LNCaP cells overexpressing bcl-xL protein (1072-4 and 1072-5) have been obtained after transfection of wild type LNCaP cells with the plasmid vector pSFFV/bcl-xL and lipofectin. Also a mock transfectant clone of LNCaP cells carrying neo® resistance gene (1072-3) was used for the control experiments. […] Western blot analysis for bcl-xL protein was performed as described above. […] For the Northern blot analysis, the total RNA was isolated from the cells using TRIZOL reagent (GIBCO BRL), and 20 μg aliquotes were separated in RNA-formaldehyde gel, blotted onto nylon membranes (Schleicher & Schull), UV-linked and prehybridized for two hours at 42° C. in the standard hybridization solution. Then the blot was hybridized overnight with the PCR-amplified fragment of human bcl-xL cDNA at 42° C. Dcl-xL coding fragment was amplified from pSFFV/bcl-xL plasmid using bcl-x specific primers. The primer sequences were: bcl-x-upstream, 5′-[…]-3′ (SEQ ID NO:36); and bcl-x-downstream, 5′-[…]-3′ (SEQ ID NO:37). Twenty five cycles of amplification were performed in DNA Thermal Cycler (Perkin-Elmer, Norwalk, Conn.) at 94° C. (30 sec), 55° C. (30 sec), and 72° C. (30 sec). The PCR products were analysed on a 1.2% agarose gel. The resultant fragment was labeled by random primer method to the specific activity 10^7 cpm/ng of the probe and used for the hybridization. After washings blots were autoradiographed for 24h at −80° C. Blots were stripped of radioactivity and reprobed with a ^32P-labeled G3PDH probe to confirm the equal loading.
Clonal derivatives of bcl-xL transfected LNCaP cells that were overexpressing high amounts of bcl-xL protein were resistant to taxol (up to 100 nM) and mitoxantrone (up to 4 μM) treatment for 24 h. […] This finding strongly supports the hypothesis that bcl-xL gene product is a factor in the development of chemotherapy resistance in hormone-refractory prostate cancer.

Row | SMILES | apoptosis induction | concentration up to which bcl-xL overexpressing LNCaP clones were resistant
1 | O=C1c2c(O)ccc(O)c2C(=O)c2c(NCCNCCO)ccc(NCCNCCO)c21 [mitoxantrone] | induce apoptosis | up to 4 μM
2 | CC(=O)O[C@H]1C(=O)[C@@]2(C)[C@H]([C@H](OC(=O)c3ccccc3)[C@]3(O)C[C@H](OC(=O)[C@H](O)[C@@H](NC(=O)c4ccccc4)c4ccccc4)C(C)=C1C3(C)C)[C@]1(OC(C)=O)CO[C@@H]1C[C@@H]2O [taxol] | induce apoptosis | up to 100 nM
